Reference: patent US20100210649A1, “PYRIDAZINONES AND FURAN-CONTAINING COMPOUNDS” (Sloan-Kettering Institute for Cancer Research, priority 2006, published 2010)

Columns and labels:
Format in all cases: cell-based, human
[1] = system: H2030; test: Non Small Cell Lung Cancer proliferation assay (Alamar Blue reduction), H2030; conditions: primary screening, 10 μM compound in 1% DMSO (v/v); for inhibition at 10 µM: Homo sapiens, NCI-H2030, read-out: percentage inhibition H2030
Experimental: (§1) These cells have a doubling time of 1-2 days. All cell types are adherent and grow in colonies. The cells should be kept at a density between 50,000 cells/mL -500,000 cells/mL to provide for optimum growth and adequate nutrition. The cell line should be maintained at 37° C. in a humidified atmosphere with 5% CO2 in a sterile cell culture incubator.
(§2) Non Small Cell Lung Cancer Proliferation Assay.
(§3) High Controls for this assay are made by treating Non Small Cell Lung Cancer cells with 5 ul of 10% DMSO. [Final concentration in this assay is 1% DMSO].
(§4) Important Note: All compounds for testing in this assay should be done at the final concentration of 1% DMSO.
(§5) After addition, the cells are placed in cell culture incubator at 37° C. for 48 hours for complete treatment.
(§6) After drug treatment, cytotoxicity is measured by Alamar Blue reduction.
(§7) The cells are incubated for 48 hours at 37° C. to complete the Alamar Blue reduction.
(§8) The final step in the assay is to measure the amount of Alamar Blue reduction. […] The Alamar Blue fluorescence is measured at an excitation of 530 nm and emission of 590 nm.
(§9) For the NSCLC project, the cell based assay was screened against a small molecule library of approximately 200,000 compounds. The compound library is stored in our automated robotic freezer (Biophile) at −20° C. in 100% DMSO. Compound freeze and thaw cycles are kept to a minimum. […] This assay was performed on a fully automated linear track robotic platform (CRS F3 Robot System, Thermo Electron Corp., Ontario, Canada) utilizing several integrated peripherals for plate handling, liquid dispensing, and readout detection. […] The microplates are then placed at 37° C. for 48 hours to complete treatment of cells with compounds. Next, 5 ul of alamar blue was added using a liquid dispenser (Flexprop Precision Dispenser, Perkin Elmer, Mass., USA) and incubated for 48 hours at 37° C. The alamar blue prompt fluorescence was measured on Victor V (Victor^3 V, Perkin Elmer, Mass., USA) and output data files were loaded into ORIS (Oncology Research Informatics System, MSKCC, NY, USA), a screening data acquisition and analysis platform.
(§10) The dose response studies were done with the following standard procedure. First, the cells were counted and dispensed at 250 cells/well into 384-well microplates with compound. The cells were incubated for 48 hours at 37 C to complete treatment, and then alamar blue was added for an additional 48 hours. Finally, alamar blue reduction was measured and the data was loaded into ORIS, our data screening acquisition platform.

[2] = system: H3255; test: Non Small Cell Lung Cancer proliferation assay (Alamar Blue reduction), H3255; conditions: primary screening, 10 μM compound in 1% DMSO (v/v); for inhibition at 10 µM: Homo sapiens, NCI-H3255, read-out: percentage inhibition H3255
Experimental: as §1, §2, §3, §4, §5, §6, §7, §8, §9, §10

[3] = system: H1650; test: Non Small Cell Lung Cancer proliferation assay (Alamar Blue reduction), H1650; conditions: primary screening, 10 μM compound in 1% DMSO (v/v); for inhibition at 10 µM: Homo sapiens, NCI-H1650, read-out: percentage inhibition H1650
Experimental: as §1, §2, §3, §4, §5, §6, §7, §8, §9, §10

[4] = system: H1975; test: Non Small Cell Lung Cancer proliferation assay (Alamar Blue reduction), H1975; conditions: primary screening, 10 μM compound in 1% DMSO (v/v); for inhibition at 10 µM: Homo sapiens, NCI-H1975, read-out: percentage inhibition H1975
Experimental: as §1, §2, §3, §4, §5, §6, §7, §8, §9, §10

Compound | inhibition at 10 µM [1] [%] | inhibition at 10 µM [2] [%] | inhibition at 10 µM [3] [%] | inhibition at 10 µM [4] [%] | percentage inhibition H2030 [1] [%] | percentage inhibition H3255 [2] [%] | percentage inhibition H1650 [3] [%] | percentage inhibition H1975 [4] [%]
O=c1ccc(Cl)nn1-c1cccc(Br)c1 [compound 178393] | -11 | -4 | 8 | 3 |  |  |  | 
CCCOc1cnn(-c2ccccc2)c(=O)c1Cl [compound 179389] | 8 | 28 | -3 | 1 |  |  |  | 
O=C(Cc1ccccc1)Oc1ccc(=O)n(-c2ccccc2)n1 [compound 180651] | 11 | 35 | 21 | 13 |  |  |  | 
Nc1ccc(Sc2cnn(-c3ccccc3)c(=O)c2Cl)cc1 [compound 181612] | 11 | 11 | 7 | -11 |  |  |  | 
N=c1c(-c2nc3ccccc3[nH]2)cc(C(=O)c2ccco2)nn1-c1ccccc1 [compound 181801] | -7 | 7 | 13 | 24 |  |  |  | 
Cc1cccc(-n2nc(C(=O)c3ccco3)cc(-c3nc4ccccc4[nH]3)c2=N)c1 [compound 181802] | -5 | 27 | -2 | 14 |  |  |  | 
COc1ccc(Sc2cnn(-c3ccccc3)c(=O)c2Cl)cc1 [compound 181862] | 9 | 22 | 7 | 3 |  |  |  | 
COc1ccc(-n2nc(C(=O)c3ccco3)cc(-c3nc4ccccc4[nH]3)c2=N)cc1 [compound 182721] | 11 | 4 | 8 | 9 |  |  |  | 
COc1cnn(-c2ccccc2)c(=O)c1SCc1ccc(Cl)c(Cl)c1 [compound 182729] | -14 | 1 | 10 | 23 |  |  |  | 
O=c1c2c(cnn1-c1ccccc1)SC(c1ccccc1)S2 (centres unmarked) [compound 182826] |  |  |  |  | −11 | −13 | 13 | 12
O=c1c(SCc2ccccc2)c(Cl)cnn1-c1ccccc1 [compound 182827] | -6 | -24 | -20 | 14 |  |  |  | 
O=c1c(SCc2ccccc2)c(SC2CCCCO2)cnn1-c1ccccc1 (centres unmarked) [compound 182828] | -8 | 18 | 25 | -5 |  |  |  | 
Cc1ccc(-n2ncc(SCc3ccccc3)c(Cl)c2=O)cc1 [compound 182830] | 3 | -4 | 20 | 10 |  |  |  | 
CSc1c(SCc2ccccc2)cnn(-c2ccccc2)c1=O [compound 182831] | -12 | -18 | -4 | 5 |  |  |  | 
O=C(CSc1cnn(-c2ccccc2)c(=O)c1Cl)c1ccc(Br)cc1 [compound 183073] | 8 | 30 | -3 | -6 |  |  |  | 
Cc1ccc(C)c(Sc2cnn(-c3ccccc3)c(=O)c2Cl)c1 [compound 183339] | -12 | -30 | 15 | 8 |  |  |  | 
CCOC(=O)C(C)Oc1ccc(=O)n(-c2ccccc2)n1 (centres unmarked) [compound 185423] | 3 | 23 | 16 | -9 |  |  |  | 
N=c1c(-c2nc3ccccc3[nH]2)cc(C(=O)c2cccs2)nn1-c1ccc(Cl)cc1 [compound 186017] | -4 | -13 | -12 | -6 |  |  |  | 
Cc1ccccc1-n1nc(C(=O)c2cccs2)cc(-c2nc3ccccc3[nH]2)c1=N [compound 186018] | 4 | 35 | 42 | -4 |  |  |  | 

Compound | inhibition at 10 µM [1] [%] | inhibition at 10 µM [2] [%] | inhibition at 10 µM [3] [%] | inhibition at 10 µM [4] [%] | percentage inhibition H2030 [1] [%] | percentage inhibition H3255 [2] [%] | percentage inhibition H1650 [3] [%] | percentage inhibition H1975 [4] [%]
N=c1c(-c2nc3ccccc3[nH]2)cc(C(=O)c2cccs2)nn1-c1ccccc1 [compound 186924] | 1 | 8 | 7 | 14 |  |  |  | 
COc1ccc(-n2nc(C(=O)c3cccs3)cc(-c3nc4ccccc4[nH]3)c2=N)cc1 [compound 186925] | 1 | -28 | 6 | 3 |  |  |  | 
N#Cc1ccccc1-n1nc(C(=O)c2cccs2)cc(-c2nc3ccccc3[nH]2)c1=N [compound 186926] |  |  |  |  | 2 | 52 | 27 | 81
CC(=O)N(C(C)=O)c1c(Cl)cnn(-c2ccccc2)c1=O [compound 187116] | 4 | 27 | 31 | 90 |  |  |  | 
COc1cnn(-c2ccccc2)c(=O)c1S [compound 187118] | 7 | 108 | 101 | 96 |  |  |  | 
Cc1cc(N(C)C)c(=O)n(-c2ccccc2)n1 [compound 189015] | -4 | 32 | 21 | 29 |  |  |  | 
O=c1ccc(O)nn1-c1ccccc1 [compound 189286] | 5 | -15 | 0 | 9 |  |  |  | 
COC(=O)NCCOc1cnn(-c2ccccc2)c(=O)c1 [compound 189493] | -8 | -25 | 2 | 12 |  |  |  | 
COc1ccc(-n2nc(C(=O)c3ccccc3)cc(-c3nc4ccccc4[nH]3)c2=N)cc1 [compound 193067] | 4 | -35 | -7 | 21 |  |  |  | 
CCc1c(C(=O)OC)nn(-c2ccc(C)cc2)c(=O)c1C#N [compound 193326] | -9 | -49 | -2 | -1 |  |  |  | 
COc1ccc(-n2nc(Cl)ccc2=O)cc1 [compound 194491] | -12 | -32 | -2 | 0 |  |  |  | 
O=c1c(Cl)c(N2CCN(CCO)CC2)cnn1-c1cccc(Cl)c1 [compound 194617] | -4 | -5 | -9 | 9 |  |  |  | 
CN1CCN(c2cnn(-c3ccc(Cl)cc3)c(=O)c2Cl)CC1 [compound 194618] | -6 | -48 | -15 | -3 |  |  |  | 
Cc1c(C(=O)NN)nn(-c2ccccc2)c(=O)c1C#N [compound 194841] | -9 | -35 | -1 | -15 |  |  |  | 
O=c1c(SCc2ccc(Cl)cc2)c(SC2CCCCO2)cnn1-c1ccccc1 (centres unmarked) [compound 195063] | -6 | -6 | 22 | 34 |  |  |  | 
O=c1cc(N2CCOCC2)cnn1-c1ccccc1 [compound 195066] | 9 | -9 | 8 | -3 |  |  |  | 
O=c1c(Sc2ccccc2)c(Sc2ccccc2)cnn1-c1ccccc1 [compound 195070] | -7 | -73 | 8 | 9 |  |  |  | 
O=c1c(SCc2ccco2)c(SCc2ccco2)cnn1-c1ccccc1 [compound 195071] | 9 | 82 | 71 | 77 |  |  |  | 
O=c1ccc(Cl)nn1-c1ccccc1 [compound 195149] | -5 | -19 | -4 | 11 |  |  |  | 
